Experimental findings from patent US20230286970A1, “NOVEL OXADIAZOLE-BASED SELECTIVE HDAC6 INHIBITORS” (ITALFARMACO S.P.A., priority 2020, published 2023) are described below.

Structures are written as SMILES.

In one test the target is recombinant human HDAC6 (Homo sapiens (Human), UniProt Q9UBN7). The test can be described thus: Enzymatic screening, HDAC6 inhibition (fluorogenic FdL_G substrate). In kind it is biochemical. The method, boiled down:
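Enzyme was preincubated with compound (8 doses, triplicate, 1% DMSO) in 25 mM Tris-HCl pH 8, 130 mM NaCl, 0.05% Tween-20, 10% glycerol, with BSA. A FLUOR DE LYS-Green substrate was then added, and fluorescence was read after developer plus 2 μM TSA.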

The next test deals with recombinant human HDAC1 (Homo sapiens (Human), UniProt Q13547). The experiment in a line: Enzymatic screening, HDAC1 inhibition (fluorogenic FdL_G substrate). In kind it is biochemical. The method in brief: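 Recombinant human HDAC1 inhibition was measured fluorometrically using the FLUOR DE LYS-Green (FdL_G) substrate. Compounds at 8 doses (1% DMSO final) in Tris-HCl pH 8 buffer with NaCl, Tween-20 and glycerol were preincubated in triplicate with enzyme and 1 mg/mL BSA, then given substrate. Developer I plus 2 μM TSA was added, and fluorescence read after 25 minutes in the dark.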
Sequence of recombinant human HDAC1 (Q13547 whole entry): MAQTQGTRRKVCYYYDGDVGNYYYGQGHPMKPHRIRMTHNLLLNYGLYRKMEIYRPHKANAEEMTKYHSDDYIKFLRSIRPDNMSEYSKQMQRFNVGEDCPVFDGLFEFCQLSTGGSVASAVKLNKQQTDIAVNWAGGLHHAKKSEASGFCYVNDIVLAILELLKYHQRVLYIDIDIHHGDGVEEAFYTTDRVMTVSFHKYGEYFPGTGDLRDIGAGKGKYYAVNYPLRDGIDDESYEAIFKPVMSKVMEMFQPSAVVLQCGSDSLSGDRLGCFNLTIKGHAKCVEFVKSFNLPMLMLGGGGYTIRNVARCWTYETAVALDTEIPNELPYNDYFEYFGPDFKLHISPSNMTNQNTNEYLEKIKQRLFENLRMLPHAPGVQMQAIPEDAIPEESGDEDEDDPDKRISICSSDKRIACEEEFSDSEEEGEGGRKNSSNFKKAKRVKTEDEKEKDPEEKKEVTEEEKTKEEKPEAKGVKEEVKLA

Sequence of recombinant human HDAC6 (Q9UBN7 whole entry): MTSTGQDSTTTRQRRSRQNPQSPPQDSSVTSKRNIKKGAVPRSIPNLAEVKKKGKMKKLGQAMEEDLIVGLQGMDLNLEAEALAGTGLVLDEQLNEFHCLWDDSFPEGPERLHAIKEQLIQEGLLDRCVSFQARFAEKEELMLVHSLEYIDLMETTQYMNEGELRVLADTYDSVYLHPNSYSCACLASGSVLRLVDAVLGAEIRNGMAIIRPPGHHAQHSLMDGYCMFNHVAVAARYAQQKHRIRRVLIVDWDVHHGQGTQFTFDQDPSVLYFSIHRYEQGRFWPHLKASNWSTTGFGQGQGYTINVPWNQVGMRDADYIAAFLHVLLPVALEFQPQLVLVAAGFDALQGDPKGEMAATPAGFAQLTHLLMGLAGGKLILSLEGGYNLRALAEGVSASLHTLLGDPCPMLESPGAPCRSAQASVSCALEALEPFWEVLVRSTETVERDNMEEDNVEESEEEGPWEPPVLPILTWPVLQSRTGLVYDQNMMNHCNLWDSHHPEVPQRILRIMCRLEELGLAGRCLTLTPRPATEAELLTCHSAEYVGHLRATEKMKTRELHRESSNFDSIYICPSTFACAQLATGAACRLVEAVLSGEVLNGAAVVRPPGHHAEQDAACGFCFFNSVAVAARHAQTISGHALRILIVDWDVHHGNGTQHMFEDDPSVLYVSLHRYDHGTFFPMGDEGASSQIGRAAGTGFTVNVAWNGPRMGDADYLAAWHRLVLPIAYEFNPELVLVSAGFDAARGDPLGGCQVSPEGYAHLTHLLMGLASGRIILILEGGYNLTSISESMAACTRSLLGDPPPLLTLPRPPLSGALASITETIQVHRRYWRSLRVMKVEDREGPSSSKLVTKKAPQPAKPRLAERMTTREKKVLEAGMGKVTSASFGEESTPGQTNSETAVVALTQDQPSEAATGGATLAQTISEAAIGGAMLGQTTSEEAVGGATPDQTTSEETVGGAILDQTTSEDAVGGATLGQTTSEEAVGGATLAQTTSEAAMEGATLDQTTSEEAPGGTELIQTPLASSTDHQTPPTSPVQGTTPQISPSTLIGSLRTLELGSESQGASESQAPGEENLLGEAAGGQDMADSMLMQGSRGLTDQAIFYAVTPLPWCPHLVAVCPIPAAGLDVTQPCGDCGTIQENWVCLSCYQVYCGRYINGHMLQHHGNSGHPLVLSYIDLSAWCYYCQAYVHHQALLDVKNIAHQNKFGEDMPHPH

What is called IC50 is the concentration at which inhibition is half-maximal. For the molecule `FC(F)c1nnc(-c2ccc(Cn3nnc(-c4cccc(-c5ccccc5)c4)n3)cc2)o1` [compound 246, 2-(4-((5-([1,1′-biphenyl]-3-yl)-2H-tetrazol-2-yl)methyl)phenyl)-5-(difluoromethyl)-1,3,4-oxadiazole], the values for the IC50 on recombinant human HDAC6 and on recombinant human HDAC1 were 266 nM and above 200000 nM, respectively.
For `Fc1cccc(-c2cn(Cc3ccc(-c4nnc(C(F)F)o4)cc3)nn2)c1` [compound 248, 2-(difluoromethyl)-5-(4-((4-(3-fluorophenyl)-1H-1,2,3-triazol-1-yl)methyl)phenyl)-1,3,4-oxadiazole], the IC50 on recombinant human HDAC6 is 275 nM; at recombinant human HDAC1 it was above 200000 nM.
On the same counts, the results for `CN(C)c1nc2cc(-c3nnn(Cc4ccc(-c5nnc(C(F)F)o5)cc4)n3)ccc2o1` [compound 249, 5-(2-(4-(5-(difluoromethyl)-1,3,4-oxadiazol-2-yl)benzyl)-2H-tetrazol-5-yl)-N,N-dimethylbenzo[d]oxazol-2-amine] are 277 nM and above 200000 nM.
Turning to `FC(F)c1nnc(-c2ccc(Cn3nnc(Cc4ccccn4)n3)cc2)o1` [compound 251, 2-(difluoromethyl)-5-(4-((5-(pyridin-2-ylmethyl)-2H-tetrazol-2-yl)methyl)phenyl)-1,3,4-oxadiazole], the IC50 on recombinant human HDAC6 was 298 nM; at recombinant human HDAC1, above 200000 nM.
On the same counts, the results for `Cn1c(N)nc2cc(-c3nnn(Cc4ncc(-c5nnc(C(F)F)o5)cn4)n3)ccc21` [compound 252, 5-(2-((5-(5-(difluoromethyl)-1,3,4-oxadiazol-2-yl)pyrimidin-2-yl)methyl)-2H-tetrazol-5-yl)-1-methyl-1H-benzo[d]imidazol-2-amine] are 27 nM and above 200000 nM.
The corresponding values for `CN(Cc1ccncc1)Cc1ccc(-c2nc(Cc3c(F)cc(-c4nnc(C(F)F)o4)cc3F)no2)cc1` [compound 254, N-(4-(3-(4-(5-(difluoromethyl)-1,3,4-oxadiazol-2-yl)-2,6-difluorobenzyl)-1,2,4-oxadiazol-5-yl)benzyl)-N-methyl-1-(pyridin-4-yl)methanamine] are 361 nM and above 200000 nM.
For the molecule `FC(F)c1nnc(-c2ccc(Cn3nnc(C4(c5ccccc5)CC4)n3)cc2)o1` [compound 256, 2-(difluoromethyl)-5-(4-((5-(1-phenylcyclopropyl)-2H-tetrazol-2-yl)methyl)phenyl)-1,3,4-oxadiazole], the IC50 was 393 nM on recombinant human HDAC6 and above 200000 nM on recombinant human HDAC1.
`CC(=O)N1CCC(c2nnn(Cc3ccc(-c4nnc(C(F)F)o4)cc3)n2)CC1` [compound 257, 1-(4-(2-(4-(5-(difluoromethyl)-1,3,4-oxadiazol-2-yl)benzyl)-2H-tetrazol-5-yl)piperidin-1-yl)ethan-1-one]: the IC50 was 395 nM at recombinant human HDAC6 and above 200000 nM at recombinant human HDAC1.
The corresponding values for `O=C(Nc1cc(-c2nnn(Cc3ccc(-c4nnc(C(F)F)o4)cc3)n2)ccc1Sc1ccccc1)N1CCOCC1` [compound 258, N-(5-(2-(4-(5-(difluoromethyl)-1,3,4-oxadiazol-2-yl)benzyl)-2H-tetrazol-5-yl)-2-(phenylthio)phenyl)morpholine-4-carboxamide] are 410 nM and above 200000 nM.
On the same counts, the results for `CN(Cc1ccc(-c2nc(Cc3ccc(-c4nnc(C(F)F)o4)cc3)no2)cc1)C(=O)C(F)F` [compound 259, N-(4-(3-(4-(5-(difluoromethyl)-1,3,4-oxadiazol-2-yl)benzyl)-1,2,4-oxadiazol-5-yl)benzyl)-2,2-difluoro-N-methylacetamide] are 439 nM and above 200000 nM.
Regarding `NC(=O)c1cccc(-c2nc(Cc3ccc(-c4nnc(C(F)F)o4)cc3)no2)c1` [compound 262, 3-(3-(4-(5-(difluoromethyl)-1,3,4-oxadiazol-2-yl)benzyl)-1,2,4-oxadiazol-5-yl)benzamide], the figures for the IC50 at recombinant human HDAC6 and at recombinant human HDAC1 were 488 nM and above 200000 nM, respectively.
As for `CC(C)(C)OC(=O)N1CCC2(CC1)Nc1cc(-c3cn(Cc4ccc(-c5nnc(C(F)F)o5)cc4)nn3)ccc1NC2=O` [compound 268, tert-butyl 7′-(1-(4-(5-(difluoromethyl)-1,3,4-oxadiazol-2-yl)benzyl)-1H-1,2,3-triazol-4-yl)-3′-oxo-3′,4′-dihydro-1′H-spiro[piperidine-4,2′-quinoxaline]-1-carboxylate], the IC50 at recombinant human HDAC6 is 254 nM; on recombinant human HDAC1 it was above 200000 nM.
The corresponding values for `O=C1Nc2ccc(-c3cn(Cc4ccc(-c5nnc(C(F)F)o5)cc4)nn3)cc2NC12CCNCC2` [compound 271, 7′-(1-(4-(5-(difluoromethyl)-1,3,4-oxadiazol-2-yl)benzyl)-1H-1,2,3-triazol-4-yl)-1′,4′-dihydro-3′H-spiro[piperidine-4,2′-quinoxalin]-3′-one] are 43 nM and above 200000 nM.
As for `CC(C)(C)OC(=O)N1CCc2[nH]c(-c3cccc(-c4nnn(Cc5ccc(-c6nnc(C(F)F)o6)cc5)n4)c3)nc2C1` [compound 272, tert-butyl 2-(3-(2-(4-(5-(difluoromethyl)-1,3,4-oxadiazol-2-yl)benzyl)-2H-tetrazol-5-yl)phenyl)-1,4,6,7-tetrahydro-5H-imidazo[4,5-c]pyridine-5-carboxylate], the IC50 is 407 nM on recombinant human HDAC6 and above 200000 nM on recombinant human HDAC1.
Regarding `FC(F)c1nnc(-c2ccc(Cn3nnc(-c4cccc(-c5nc6c([nH]5)CCNC6)c4)n3)nc2)o1` [compound 276, 2-(difluoromethyl)-5-(6-((5-(3-(4,5,6,7-tetrahydro-1H-imidazo[4,5-c]pyridin-2-yl)phenyl)-2H-tetrazol-2-yl)methyl)pyridin-3-yl)-1,3,4-oxadiazole], the results for the IC50 on recombinant human HDAC6 and on recombinant human HDAC1 were 9 nM and 165000 nM, respectively.
Consider `O=C1Nc2cc(-c3cn(Cc4ccc(-c5nnc(C(F)F)o5)cc4)nn3)ccc2NC12CCNCC2` [compound 277, 6′-(1-(4-(5-(difluoromethyl)-1,3,4-oxadiazol-2-yl)benzyl)-1H-1,2,3-triazol-4-yl)-1′,4′-dihydro-3′H-spiro[piperidine-4,2′-quinoxalin]-3′-one], for which the values for the IC50 on recombinant human HDAC6 and at recombinant human HDAC1 were 72 nM and 166000 nM, respectively.
As to `CC(C)(C)OC(=O)N1CCC2(CC1)Nc1ccc(-c3cn(Cc4ccc(-c5nnc(C(F)F)o5)cc4)nn3)cc1NC2=O` [compound 279, tert-butyl 6′-(1-(4-(5-(difluoromethyl)-1,3,4-oxadiazol-2-yl)benzyl)-1H-1,2,3-triazol-4-yl)-3′-oxo-3′,4′-dihydro-1′H-spiro[piperidine-4,2′-quinoxaline]-1-carboxylate], the IC50 at recombinant human HDAC6 is 286 nM; at recombinant human HDAC1, above 200000 nM.
On the same counts, the results for `FC(F)c1nnc(-c2ccc(Cn3cc(-c4cnc5cccnn45)nn3)cc2)o1` [compound 280, 2-(difluoromethyl)-5-(4-((4-(imidazo[1,2-b]pyridazin-3-yl)-1H-1,2,3-triazol-1-yl)methyl)phenyl)-1,3,4-oxadiazole] are 89 nM and above 200000 nM.
Regarding `CN(C)c1ccc(-c2cn(Cc3ccc(-c4nnc(C(F)F)o4)cc3)nn2)cc1` [compound 281, 4-(1-(4-(5-(difluoromethyl)-1,3,4-oxadiazol-2-yl)benzyl)-1H-1,2,3-triazol-4-yl)-N,N-dimethylaniline], the results for the IC50 at recombinant human HDAC6 and on recombinant human HDAC1 were 200 nM and above 200000 nM, respectively.
For the molecule `CN(Cc1ccncc1)Cc1ccc(-c2cn(Cc3ccc(-c4nnc(C(F)F)o4)cc3)nn2)cc1` [compound 282, N-(4-(1-(4-(5-(difluoromethyl)-1,3,4-oxadiazol-2-yl)benzyl)-1H-1,2,3-triazol-4-yl)benzyl)-N-methyl-1-(pyridin-4-yl)methanamine], the IC50 at recombinant human HDAC6 is 282 nM; at recombinant human HDAC1, above 200000 nM.
Take `Cn1c(Sc2c(F)cc(-c3nnc(C(F)F)o3)cc2F)nnc1-c1ccc(N)nc1` [compound 284, 5-(5-((4-(5-(difluoromethyl)-1,3,4-oxadiazol-2-yl)-2,6-difluorophenyl)thio)-4-methyl-4H-1,2,4-triazol-3-yl)pyridin-2-amine]: the IC50 was 323 nM at recombinant human HDAC6 and above 200000 nM on recombinant human HDAC1.
For `Cn1c(Sc2ccc(-c3nnc(C(F)F)o3)cc2)nnc1-c1ccc(N)nc1` [compound 285, 5-(5-((4-(5-(difluoromethyl)-1,3,4-oxadiazol-2-yl)phenyl)thio)-4-methyl-4H-1,2,4-triazol-3-yl)pyridin-2-amine], the IC50 on recombinant human HDAC6 was 491 nM; at recombinant human HDAC1, above 200000 nM.
Turning to `FC(F)c1nnc(-c2ccc(Cn3nnnc3-c3ncccn3)cc2)o1` [compound 287, 2-(difluoromethyl)-5-(4-((5-(pyrimidin-2-yl)-1H-tetrazol-1-yl)methyl)phenyl)-1,3,4-oxadiazole], the half-inhibitory concentration (IC50) was 446 nM on recombinant human HDAC6 and above 200000 nM on recombinant human HDAC1.
`FC(F)c1nnc(-c2ccc(Cn3nnnc3-c3cccc(-n4cccn4)c3)cc2)o1` [compound 289, 2-(4-((5-(3-(1H-pyrazol-1-yl)phenyl)-1H-tetrazol-1-yl)methyl)phenyl)-5-(difluoromethyl)-1,3,4-oxadiazole]: the figures for the IC50 at recombinant human HDAC6 and on recombinant human HDAC1 were 203 nM and above 200000 nM, respectively.
On to `Nc1ccc(-c2nnnn2Cc2ncc(-c3nnc(C(F)F)o3)cn2)cn1` [compound 290, 5-(1-((5-(5-(difluoromethyl)-1,3,4-oxadiazol-2-yl)pyrimidin-2-yl)methyl)-1H-tetrazol-5-yl)pyridin-2-amine], for which the figures for the IC50 at recombinant human HDAC6 and at recombinant human HDAC1 were 68 nM and above 200000 nM, respectively.
For the molecule `Cn1c(N)nc2cc(-c3nnnn3Cc3ncc(-c4nnc(C(F)F)o4)cn3)ccc21` [compound 291, 5-(1-((5-(5-(difluoromethyl)-1,3,4-oxadiazol-2-yl)pyrimidin-2-yl)methyl)-1H-tetrazol-5-yl)-1-methyl-1H-benzo[d]imidazol-2-amine], the results for the IC50 at recombinant human HDAC6 and on recombinant human HDAC1 were 129 nM and above 200000 nM, respectively.
